Results on three compounds are retold here after US20080220416A1, “Compositions for Inhibiting Cell Growth and Inducing Apoptosis in Cancer Cells and Methods of Use Thereof” (THE BOARD OF TRUSTEES OF THE UNIVERSITY OF ILLINOI, priority 2004, published 2008).

Broadly, the IC50 is the concentration at which inhibition is half-maximal.

Structures are written as SMILES. Like-named read-outs stand apart in the source and are kept apart here.

The subject of one experiment is SK-MeI-28 melanoma cells. The experiment can be described thus: Dosing study versus chemotherapeutic agents, killing of SK-MeI-28 melanoma cells. In kind it is cell-based, human. Particulars: SK-MeI-28, mutated p53. On the procedure:
(§1) An initial dosing study comparing z-Leu-Leu-Nle-CHO against three different chemotherapeutic agents (i.e., adriamycin, etoposide, and cisplatin) was performed to evaluate the relative effectiveness of z-Leu-Leu-Nle-CHO in killing melanoma cells. In agreement with a previous report by Soengas, M. S. et al., 2001, Nature 409.207-211, SK-MeI-28 cells, carrying a mutated p53, were relatively resistant to killing by adriamycin, as well as to killing by other chemotherapeutic agents. For SK-MeI-28 melanoma cells, the maximal apoptotic response for adriamycin, etoposide, cisplatin, and z-Leu-Leu-Nle-CHO was 12.0%, 2.6%, 4.0%, and 29.4%, respectively. For RJ002L melanoma cells, the maximal apoptotic response for adriamycin, etoposide, cisplatin, and z-Leu-Leu-Nle-CHO was 23.9%, 12.7%, 3.4%, and 45.7%, respectively.

The next experiment concerns RJ002L melanoma cells. The experiment can be described thus: Dosing study versus chemotherapeutic agents, killing of RJ002L melanoma cells. In kind it is cell-based, human. On the procedure: as §1
The test system of another experiment is NOXA. The experiment can be described thus: Western blot of pro-survival and pro-apoptotic proteins in melanoma cells. In kind it is cell-based, human. Particulars: several melanoma cell lines, similar time points; data not shown. On the procedure:
To assess the effect of z-Leu-Leu-Nle-CHO on pro-apoptotic proteins, RJ002L pulmonary metastases melanoma cells were grown in RPMI supplemented with 10% FBS. Highly proliferating cells (i.e., cells that had reached approximately 30% confluency) were exposed to z-Leu-Leu-Nle-CHO by replenishing the culture media with media containing z-Leu-Leu-Nle-CHO (10 μM) (experimental group) or media without z-Leu-Leu-Nle-CHO (control group) and the cells were incubated for a specified period of time prior to harvesting the cells for further analysis.
Western blot analyses following z-Leu-Leu-Nle-CHO and control treatment of RJ002L melanoma cells were performed to determine the effect of z-Leu-Leu-Nle-CHO on pro-survival and pro-apoptotic proteins. Whole cell extracts were prepared and analyzed as described by Denning, M. F. et al., 1998, J Biol Chem 273: 29995-30002, 1998. The enriched mitochondria pellet and mitochondria-free cytosol of melanoma cells were prepared with the APO ALERT cell fraction kit (Clontech Laboratories, Inc. Palo Alto, Calif.) according to the manufacturer's instructions. For Western blot analysis, equal amounts of protein extracted from each sample (20-30 μg) were loaded into pre-cast 7% NuPAGE Tris-acetate gels or 4-12% NuPAGE Bis-tris gels (Invitrogen). Proteins were separated by SDS-PAGE and transferred to polyvinylidene difluoride membranes (Bio-Rad, Hercules, Calif.) using Invitrogen's buffering system. The indicated primary antibodies were incubated for indicated period of time, washed, and visualized by incubation with horseradish peroxidase-conjugated secondary antibodies and chemiluminescent reagents (Roche Diagnostics Corporation, Indianapolis, Ind.). Antibodies used were as follows: From Santa Cruz Biotechnology: Bcl-2 (SC-7382), BCl-xL (SC-634), Mcl-1 (SC-819), survivin (SC-10811), Bax (SC-493), Bak (SC-832), Bim (SC-11425), PUMA (SC-19187), p53 (SC-126), and GADD45 (SC-796); From Cell Signaling: Bid (#2002), and cleaved caspase 9 (9501); NOXA (OP180—Oncogene Research Products), Apaf-1 (559683-BD Bioscience), Smac/Diablo (IMG-248-Imgenex), cytochrome C (part of kit—Apo Alert™ cell fraction kit—Clontech Laboratories, Inc.—Palo Alto, Calif.), PARP (Pharmingen, San Diego, Calif.) and β-actin (Sigma Chemical Co., St. Louis, Mo.). Secondary antibodies anti-goat, anti-mouse, anti-rabbit and anti-rat (IgG-HRP) were purchased from Vector Laboratories (Burlingame, Calif.), Santa Cruz Biotechnology and Amersham Biosciences.
To determine if p53 status influences induction of NOXA, NOXA induction in z-Leu-Leu-Nle-CHO-treated melanoma cell lines (10 μM) containing p53 mutations (i.e. C8161, SK-MeI-28, MUM2B) were examined using Western blot analysis as described above and compared to that of Western blot results from z-Leu-Leu-Nle-CHO-treated melanoma cell lines (10 μM) having wild-type p53 (RJ002L, SK-MeI-100). […] In contrast, C8161, which carries a R196Stop mutation in only one allele, has p53 expression similar to that observed in wild-type cell lines. […] NOXA induction occurred earlier in SK-MeI-100 cells than in the other tested cell lines (FIG. 2C). Apaf-1 levels were not increased in response to z-Leu-Leu-Nle-CHO (data not shown).

Experiment [1] deals with CaSki human cervical cancer cells. The experiment can be described thus: Cell growth inhibition assay in CaSki cervical cancer cells (crystal violet). In kind it is cell-based. Particulars: 48 hrs, read-out: IC50 of cisplatin. The method, then: The cell growth inhibition assay was performed in a 96-well plate format. Inhibition was assessed by monitoring the protein content in each well using the crystal violet staining method as described by Skehan et al., 1990, J Natl Cancer Inst 82:1107-1112 and Prochaska et al., 1988, Anal Biochem 169:328-336. Briefly, cells were plated at a density of 2×10^4 cells/ml in 200 μl of DMEM supplemented with 10% FBS. The cells were transfected with siRNAs ([…] siRNA oligos/well) using Oligofectamine Transfection Reagents (InVitrogen) according to manufacturer's instructions. Twenty-four hours post-transfection, the media was decanted, 190 μl of fresh media was added to each well, and 10 μl of cisplatin (4 mM) dissolved in 10% DMSO was added to the wells as a series 2-fold dilutions (final concentration of cisplatin in the wells ranged from 0.5-200 μM). The cells were incubated with cisplatin for 48 hrs, the media was decanted, and the cells were submerged with 200 μl of 0.2% crystal violet in 2% ethanol for 10 min. The plates were rinsed for 2 min with tap water. The bound dye was solublized by incubation at 37° C. for 1 h with 200 μl of 0.5% sodium dedecyl sulfate in 50% ethanol. The plates were then scanned with an ELISA reader at 562 nm. The percentage cell growth inhibition mediated by cisplatin was calculated as: % inhibition=[1-(OD of cisplatin-treated cells/OD DMSO-treated control cells)]×100/100.
CaSki human cervical cancer cells treated for 48 hrs with z-Leu-Leu-Nle-CHO alone were tested for cell growth inhibition. The cell growth inhibition assay was performed in a 96-well plate format. Inhibition was assessed by monitoring the protein content in each well using the crystal violet staining method Skehan, P. et al., 1990, J Natl Cancer Inst 82:1107-1112. Briefly, cells were plated at a density of 2×10^4 cells/ml in 200 μl of DMEM supplemented with 10% FBS. After pre-incubation period of 24 h, the media was decanted, 190 μl of fresh media was added to each well, and 10 μl (150 μM) of z-Leu-Leu-Nle-CHO dissolved in 10% DMSO was added to the wells as a series 2-fold dilutions (final concentration of cisplatin in the wells ranged from 0.05-7.5 μM). The cells were incubated with z-Leu-Leu-Nle-CHO for 48 hrs, the media was decanted, and the cells were submerged with 200 μl of 0.2% crystal violet in 2% ethanol for 10 min. The plates were rinsed for 2 min with tap water. The bound dye was solublized by incubation at 37° C. for 1 h with 200 μl of 0.5% sodium dedecyl sulfate in 50% ethanol. The plates were then scanned with an ELISA reader at 562 nm. The percentage cell growth inhibition mediated by test agents was calculated as: % inhibition=[1-(OD of z-Leu-Leu-Nle-CHO-treated cells/OD DMSO-treated control cells)]×100/100.
To determine whether z-Leu-Leu-Nle-CHO treatment potentiates the effect of cisplatin on human […] cancer cells, the CaSki cells were treated for 48 h with 0.1-0.8 μM z-Leu-Leu-Nle-CHO and various concentrations of cisplatin (2-fold dilutions of a cisplatin solution to produce final concentrations of 1.6-200 μM cisplatin). Following the z-Leu-Leu-Nle-CHO and cisplatin treatment, the cells were tested for growth inhibition as described above.
Isobologram analysis was performed by measuring the IC50 values of cisplatin in the presence of various concentrations of z-Leu-Leu-Nle-CHO. These IC50 values were plotted with SigmaPlot, and a straight line was traced between the IC50 values of cells treated with either cisplatin or z-Leu-Leu-Nle-CHO alone.

For the compound `COc1cccc2c1C(=O)c1c(O)c3c(c(O)c1C2=O)C[C@@](O)(C(=O)CO)C[C@@H]3O[C@H]1C[C@H](N)[C@H](O)[C@H](C)O1` [adriamycin], the maximal apoptotic response in the experiment on SK-MeI-28 melanoma cells is on record as 12.0%; in the experiment with RJ002L melanoma cells it was 23.9%. For the same compound, the “NOXA induction by DNA damaging agents” value in the experiment on NOXA is reported as “did not induce NOXA”.

Regarding `N.N.[Cl][Pt][Cl]` [cisplatin], the maximal apoptotic response with SK-MeI-28 melanoma cells is on record as 4.0%; in the experiment on RJ002L melanoma cells, 3.4%. In the experiment on NOXA, the “NOXA induction by DNA damaging agents” value is given as “did not induce NOXA”. Further, the IC50 in experiment [1] (in combination with Notch-1 siRNA) was determined as 0.46 µM; in experiment [1] (without Notch-1 siRNA), 27.3 µM.

With `COc1cc([C@@H]2c3cc4c(cc3[C@@H](O[C@@H]3O[C@@H]5CO[C@@H](C)O[C@H]5[C@H](O)[C@H]3O)[C@H]3COC(=O)[C@H]23)OCO4)cc(OC)c1O` [etoposide], the maximal apoptotic response in the experiment on SK-MeI-28 melanoma cells worked out at 2.6%; in the experiment with RJ002L melanoma cells, 12.7%. Besides, in the experiment with NOXA, the “NOXA induction by DNA damaging agents” value is “did not induce NOXA”.
